# Measured values published in patent US10105357B2, “Indication of antibiotic drugs for preparation of cancer inhibition pharmaceutical composition” (LAUNX BIOMEDICAL CO., LTD., priority 2014, dated 2018).
# Where a name gives a salt, the structure may show the parent alone. Read-outs that look alike come from different tables or passages of the source.
# Tests used:
# [1] = system: HeLa (Cervix Adenocarcinoma); assay: Cell viability analysis, cervical cancer HeLa; type: cell-based, human; conditions: for viability at 10 µM: Homo sapiens, HeLa
# [2] = system: HCT116 (p53+) (Colorectal Carcinoma)
# [3] = system: PC3 (p53−) (Prostate Adenocarcinoma); assay: Cell viability analysis, prostate cancer PC3; type: cell-based, human; conditions: for viability at 10 µM: Homo sapiens
# AsPC-1 = assay: Cell viability analysis, pancreatic cancer AsPC-1; type: cell-based, human
# [4] = system: SAS (Tongue squamous cell carcinoma); assay: Cell viability analysis, tongue cancer SAS; type: cell-based, human
# [5] = system: TSGH-8301 (Urinary Bladder Carcinoma); assay: Cell viability analysis, bladder cancer TSGH-8301; type: cell-based, human; conditions: for viability at 10 µM: Homo sapiens
# [6] = system: MDA-MB-231 (Mammary Gland, Adenocarcinoma); assay: Cell viability analysis, breast cancer MDA-MB-231; type: cell-based, human
# [7] = system: MCF7 (Mammary Gland, Adenocarcinoma); assay: Cell viability analysis, breast cancer MCF7; type: cell-based, human; conditions: for viability at 10 µM: Homo sapiens
# [8] = system: A549 (Lung Adenocarcinoma); assay: Cell viability analysis, lung cancer A549; type: cell-based, human; conditions: for viability at 10 µM: Homo sapiens, A549
# [9] = system: LoVo (Colorectal Adenocarcinoma); assay: Cell viability analysis, colon cancer LoVo; type: cell-based, human; conditions: for viability at 10 µM: Homo sapiens, LoVo
# [10] = system: AGS (Gastric Adenocarcinoma); assay: Cell viability analysis, gastric cancer AGS; type: cell-based, human; conditions: for viability at 10 µM: Homo sapiens
# cancer cell lines = assay: Cell viability analysis (WST-1) on cancer cell lines; type: cell-based, human; conditions: drug 10 μM, 72 hours, WST-1; Table 3
# [11] = system: BCC (basal cell carcinoma); assay: Cell viability analysis, skin cancer BCC; type: cell-based, human
# [12] = system: C-33A (Cervical carcinoma); assay: Cell viability analysis, cervical cancer C-33A; type: cell-based, human
# [13] = system: HepG2 (Hepatocellular Carcinoma); assay: Cell viability analysis, hepatic cancer HepG2; type: cell-based, human; conditions: for viability at 10 µM: Homo sapiens, HepG2
# BxPC-3 = assay: Cell viability analysis, pancreatic cancer BxPC-3; type: cell-based, human
# [14] = system: HI650 (Lung Adenocarcinoma); assay: Cell viability analysis, lung cancer HI650; type: cell-based, human; conditions: for viability at 10 µM: Homo sapiens
# T24 = assay: Cell viability analysis, bladder cancer T24; type: cell-based, human
# [15] = system: Hep3B (hepatocellular carcinoma); assay: Cell viability analysis, hepatic cancer Hep3B; type: cell-based, human
# [16] = system: A375 (Amelanotic Melanoma); assay: Cell viability analysis, skin cancer A375; type: cell-based, human; conditions: for viability at 10 µM: Homo sapiens
# NIH: OVCAR-3 = assay: Cell viability analysis, ovarian cancer NIH: OVCAR-3; type: cell-based, human
# TOV-21G = assay: Cell viability analysis, ovarian cancer TOV-21G; type: cell-based, human
# [17] = system: 786-O (Renal adenocarcinoma); assay: Cell viability analysis, renal cancer 786-O; type: cell-based, human
# U-2OS = assay: Cell viability analysis, osteosarcoma U-2OS; type: cell-based, human
# [18] = system: MKN-45 (Gastric Adenocarcinoma); assay: Cell viability analysis, gastric cancer MKN-45; type: cell-based, human; conditions: for viability at 10 µM: Homo sapiens, MKN-45
smiles,measurement,setting,value
CN(C)C(=O)C(CCN1CCC(O)(c2ccc(Cl)cc2)CC1)(c1ccccc1)c1ccccc1 [Loperamide hydrochloride],viability at 10 µM,"[1]; 72 h, repeated experiment, read-out: The results of antibiotic drug inhibiting cancer cell lines (cell viability analysis), HeLa",36.8%
same,viability at 10 µM,"[1]; drug 10 μM, 72 hours, WST-1, OD450 nm, read-out: cell viability (survival rate), HeLa",73%
same,viability,[2],47.3%
same,viability at 10 µM,"[3]; 72 h, PC-3, repeated experiment, read-out: The results of antibiotic drug inhibiting cancer cell lines (cell viability analysis), PC-3",41.6%
same,viability at 10 µM,"[3]; drug 10 μM, 72 hours, WST-1, OD450 nm, read-out: cell viability (survival rate), PC3",64.7%
same,viability at 10 µM,"AsPC-1; Homo sapiens, ASPC1, 72 h, read-out: The results of antibiotic drug inhibiting cancer cell lines (cell viability analysis), AsPC-1",47.5%
same,viability at 10 µM,"[4]; Homo sapiens, 72 h, read-out: The results of antibiotic drug inhibiting cancer cell lines (cell viability analysis), SAS",31.8%
same,viability at 10 µM,"[5]; 72 h, TSGH-8301, repeated experiment, read-out: The results of antibiotic drug inhibiting cancer cell lines (cell viability analysis), TSGH-8301",42.9%
same,viability at 10 µM,"[5]; drug 10 μM, 72 hours, WST-1, OD450 nm, read-out: cell viability (survival rate), TSGH",42.7%
same,viability at 10 µM,"[6]; Homo sapiens, MDA-MB-231, 72 h, read-out: The results of antibiotic drug inhibiting cancer cell lines (cell viability analysis), MDA-MB231",72.5%
same,viability at 10 µM,"[7]; MCF7, 72 h, MCF-7, repeated experiment, read-out: The results of antibiotic drug inhibiting cancer cell lines (cell viability analysis), MCF-7",36.2%
same,viability at 10 µM,"[7]; MCF7, drug 10 μM, 72 hours, WST-1, OD450 nm, read-out: cell viability (survival rate), MCF7",78.9%
same,viability at 10 µM,"[8]; 72 h, repeated experiment, read-out: The results of antibiotic drug inhibiting cancer cell lines (cell viability analysis), A549",26.2%
same,viability at 10 µM,"[8]; drug 10 μM, 72 hours, WST-1, OD450 nm, read-out: cell viability (survival rate), A549",104%
same,viability at 10 µM,"[9]; 72 h, repeated experiment, read-out: The results of antibiotic drug inhibiting cancer cell lines (cell viability analysis), LoVo",49.3%
same,viability at 10 µM,"[9]; drug 10 μM, 72 hours, WST-1, OD450 nm, read-out: cell viability (survival rate), LoVo",64.8%
same,viability at 10 µM,"[10]; 72 h, AGS, repeated experiment, read-out: The results of antibiotic drug inhibiting cancer cell lines (cell viability analysis), AGS",22.2%
same,viability at 10 µM,"[10]; drug 10 μM, 72 hours, WST-1, OD450 nm, read-out: cell viability (survival rate), AGS",57.3%
same,inhibition effect on different cancer cell lines,cancer cell lines,significant inhibition effect
same,viability at 10 µM,"[11]; Homo sapiens, 72 h, read-out: The results of antibiotic drug inhibiting cancer cell lines (cell viability analysis), BCC",51.5%
same,viability at 10 µM,"[12]; Homo sapiens, C-33-A, 72 h, read-out: The results of antibiotic drug inhibiting cancer cell lines (cell viability analysis), C-33A",39.6%
same,viability at 10 µM,"[13]; 72 h, repeated experiment, read-out: The results of antibiotic drug inhibiting cancer cell lines (cell viability analysis), HepG2",35.8%
same,viability at 10 µM,"[13]; drug 10 μM, 72 hours, WST-1, OD450 nm, read-out: cell viability (survival rate), HepG2",103%
same,viability at 10 µM,"BxPC-3; Homo sapiens, BXPC-3, 72 h, read-out: The results of antibiotic drug inhibiting cancer cell lines (cell viability analysis), BxPC-3",35.7%
same,viability at 10 µM,"[14]; NCI-H1650, 72 h, H1650, repeated experiment, read-out: The results of antibiotic drug inhibiting cancer cell lines (cell viability analysis), H1650",41.3%
same,viability at 10 µM,"[14]; NCI-H1650, drug 10 μM, 72 hours, WST-1, OD450 nm, read-out: cell viability (survival rate), H1650",66.7%
same,viability at 10 µM,"T24; Homo sapiens, T-24, 72 h, read-out: The results of antibiotic drug inhibiting cancer cell lines (cell viability analysis), T24",73.5%
same,viability at 10 µM,"[15]; Homo sapiens, Hep3B, 72 h, read-out: The results of antibiotic drug inhibiting cancer cell lines (cell viability analysis), Hep3B",50.2%
same,viability at 10 µM,"[16]; A-375, 72 h, A375, repeated experiment, read-out: The results of antibiotic drug inhibiting cancer cell lines (cell viability analysis), A375",34.3%
same,viability at 10 µM,"[16]; A-375, drug 10 μM, 72 hours, WST-1, OD450 nm, read-out: cell viability (survival rate), A375",58.8%
same,viability at 10 µM,"NIH: OVCAR-3; Homo sapiens, OVCAR-3, 72 h, read-out: The results of antibiotic drug inhibiting cancer cell lines (cell viability analysis), NIH-OVCAR-3",75.5%
same,viability at 10 µM,"TOV-21G; Homo sapiens, TOV21G, 72 h, read-out: The results of antibiotic drug inhibiting cancer cell lines (cell viability analysis), TOV-21G",24.2%
same,viability at 10 µM,"[17]; Homo sapiens, 786-0, 72 h, read-out: The results of antibiotic drug inhibiting cancer cell lines (cell viability analysis), 786-O",40.9%
same,viability at 10 µM,"U-2OS; Homo sapiens, U2OS, 72 h, read-out: The results of antibiotic drug inhibiting cancer cell lines (cell viability analysis), U2OS",32%
same,viability at 10 µM,"[18]; 72 h, repeated experiment, read-out: The results of antibiotic drug inhibiting cancer cell lines (cell viability analysis), MKN-45",61.5%
same,viability at 10 µM,"[18]; drug 10 μM, 72 hours, WST-1, OD450 nm, read-out: cell viability (survival rate), MKN-45",64.3%
"CC1(C)[C@@H](O[C@H]2O[C@H](C(=O)O)[C@@H](O)[C@H](O)[C@H]2O[C@@H]2O[C@H](C(=O)O)[C@@H](O)[C@H](O)[C@H]2O)CC[C@]2(C)[C@H]3C(=O)C=C4[C@@H]5C[C@@](C)(C(=O)O)CC[C@]5(C)CC[C@@]4(C)[C@]3(C)CC[C@@H]12 [Ammonium Glycyrrhizinate (AMGZ), Ammonium Glycyrrhizinate]","The results of antibiotic drug inhibiting cancer cell lines (cell viability analysis), HeLa",[1],103.4
same,viability,[2],93.4%
same,"The results of antibiotic drug inhibiting cancer cell lines (cell viability analysis), PC-3",[3],120.7
same,"The results of antibiotic drug inhibiting cancer cell lines (cell viability analysis), AsPC-1",AsPC-1,100.6
same,"The results of antibiotic drug inhibiting cancer cell lines (cell viability analysis), SAS",[4],83.22
same,"The results of antibiotic drug inhibiting cancer cell lines (cell viability analysis), TSGH-8301",[5],105.2
same,"The results of antibiotic drug inhibiting cancer cell lines (cell viability analysis), MDA-MB231",[6],98.74
same,"The results of antibiotic drug inhibiting cancer cell lines (cell viability analysis), MCF-7",[7],69.06
same,"The results of antibiotic drug inhibiting cancer cell lines (cell viability analysis), A549",[8],83.55
same,"The results of antibiotic drug inhibiting cancer cell lines (cell viability analysis), LoVo",[9],100.4
same,"The results of antibiotic drug inhibiting cancer cell lines (cell viability analysis), AGS",[10],109.2
same,inhibition effect on different cancer cell lines,cancer cell lines,significant inhibition effect
same,"The results of antibiotic drug inhibiting cancer cell lines (cell viability analysis), BCC",[11],93.09
same,"The results of antibiotic drug inhibiting cancer cell lines (cell viability analysis), C-33A",[12],108.4
same,"The results of antibiotic drug inhibiting cancer cell lines (cell viability analysis), HepG2",[13],119.7
same,"The results of antibiotic drug inhibiting cancer cell lines (cell viability analysis), BxPC-3",BxPC-3,102.8
same,"The results of antibiotic drug inhibiting cancer cell lines (cell viability analysis), H1650",[14],76.88
same,"The results of antibiotic drug inhibiting cancer cell lines (cell viability analysis), T24",T24,107.9
same,"The results of antibiotic drug inhibiting cancer cell lines (cell viability analysis), Hep3B",[15],102.1
same,"The results of antibiotic drug inhibiting cancer cell lines (cell viability analysis), A375",[16],100.5
same,"The results of antibiotic drug inhibiting cancer cell lines (cell viability analysis), NIH-OVCAR-3",NIH: OVCAR-3,101
same,"The results of antibiotic drug inhibiting cancer cell lines (cell viability analysis), TOV-21G",TOV-21G,74.39
same,"The results of antibiotic drug inhibiting cancer cell lines (cell viability analysis), 786-O",[17],102.9
same,"The results of antibiotic drug inhibiting cancer cell lines (cell viability analysis), U2OS",U-2OS,78.97
same,"The results of antibiotic drug inhibiting cancer cell lines (cell viability analysis), MKN-45",[18],96.41
